Literature values in patent publication US20080253966A1, “Diagnostic, Prognostic, and Therapeutic Factor Smac/Diablo in Human Cancer” (The Regents of The University of California, priority 2004, published 2008).

Tested on: cell lines treated with paclitaxel, etoposide, camptothecin, and doxorubicine

## first four amino acids of Smac/DIABLO: the first four amino acids of Smac/DIABLO (Arnt et al., J. Biol. Chem. 2002) (AVPI; UniProt Q9NR28 56-59, looked up, fragment)
  effect on apoptosis: increased apoptosis
